Data set [1] is described as follows: Critical micelle concentration from pyrene fluorescence. It is filed as physicochemical. The following applies: pyrene 100 μM. On the procedure:
Critical micelle concentration (CMC) value of the trCLN3-L4 motif was further confirmed by internalizing pyrene into the hydrophobic-lipid core of the micellar aggregate followed by measuring the fluorescence of pyrene-loaded trCLN3-L4 nanoconstructs at different concentrations. For this experiment a fixed amount of pyrene in acetone was transferred to an empty tube and acetone was allowed to evaporate in the dark at 45° C. for 30 min using an Eppendorf concentrator. trCLN3-L4 solutions in the concentration range between 0.0005-0.5 mg/ml were then added to yield a final pyrene concentration fixed at 100 μM for all reactions (Table 3). The solutions were incubated at 90° C. for 10 minutes in the dark and slowly cooled down to room temperature overnight at a rate of 1° C./10 min in order to internalize pyrene into the hydrophobic lipid core. The pyrene-loaded trCLN3-L4 nanoconstructs were transferred into a 384-multi well plate and the fluorescence emission spectrum of each well was recorded at room temperature by using an excitation wave length of 339 nm in an EnSpire® Multimode Plate Reader (PerkinElmer).
In close proximity, two pyrene molecules form an excimer that emits fluorescence at a longer wavelength compared to the monomer emission. The formed excimer is a dimeric complex where one molecule exists in an excited state and the other molecule in a ground state. Monomer emission of pyrene occurs within a range of 360-400 nm whereas the excimer emission is obtained within the wavelength limit of 465-500 nm. The critical micelle concentration was determined by the distinguishable pyrene excimer fluorescence of the corresponding DNA concentration. See G. Uddin G et al., Am. J. Biochem. Mol. Biol. 2013, 3, 175-181; which reference is incorporated herein in its entirety.

A further data set concerns the target T1, cMet (Homo sapiens, UniProt P08581).
T1 construct: cMet-Fc, which represents the ectodomain of cMet fused to the Fc domain of human IgG1 was purchased from R&D Systems; purchased R&D Systems
Put plainly: Competitive filter-binding assay against γ-32P-labeled trCLN3. The conditions noted are these: competition with γ-32P-trCLN3, cMet ~50 nM, competitor 1 μM-25 pM, 37° C. On the procedure:
To test the effect of lipid-modification on trCLN3 binding properties, we determined IC50 values for each trCLN3 derivative by a competitive filter retention assay in which varying concentrations of unlabeled 5′-(1-dodecynyl)-functionalized trCLN3 aptamers competed with constant amounts of γ-^32P-labeled trCLN3 in binding to cMet. Two control experiments were also performed using unlabeled trCLN3 and its two point mutant variant trCLN3.mut as competitors.
First, the trCLN3 motif was 5′-end-labeled with γ-^32P ATP using T4 polynucleotide kinase. An aliquot of 20 μL solution containing 50 pmol trCLN3. 6.7 pmol γ-^32P ATP and 20 U T4 polynucleotide kinase in 1× polynucleotide kinase buffer (New England Biolabs) was incubated at 37° C. for 45 min. followed by removal of unreacted γ-^32P ATP using an Illustra G-25 microspin column (GE Healthcare. München, Germany). The purity of the radiolabeled aptamer was confirmed using a 10% PAGE-gel.
0.25 mg/ml BSA. 2 mM MgCl2 in 1×PBS, pH 7.4. […] Residual radioactivity due to cMet bound labeled aptamers was quantified using Fujifilm Fla-3000 PhosphorImager and AIDA software. The curves were fitted with GraphPadPrism 3.02 plotting non-linear regression curve and the IC50 values have been calculated assuming a competition for single binding site.

T1 sequence (P08581 25-932 limits assumed): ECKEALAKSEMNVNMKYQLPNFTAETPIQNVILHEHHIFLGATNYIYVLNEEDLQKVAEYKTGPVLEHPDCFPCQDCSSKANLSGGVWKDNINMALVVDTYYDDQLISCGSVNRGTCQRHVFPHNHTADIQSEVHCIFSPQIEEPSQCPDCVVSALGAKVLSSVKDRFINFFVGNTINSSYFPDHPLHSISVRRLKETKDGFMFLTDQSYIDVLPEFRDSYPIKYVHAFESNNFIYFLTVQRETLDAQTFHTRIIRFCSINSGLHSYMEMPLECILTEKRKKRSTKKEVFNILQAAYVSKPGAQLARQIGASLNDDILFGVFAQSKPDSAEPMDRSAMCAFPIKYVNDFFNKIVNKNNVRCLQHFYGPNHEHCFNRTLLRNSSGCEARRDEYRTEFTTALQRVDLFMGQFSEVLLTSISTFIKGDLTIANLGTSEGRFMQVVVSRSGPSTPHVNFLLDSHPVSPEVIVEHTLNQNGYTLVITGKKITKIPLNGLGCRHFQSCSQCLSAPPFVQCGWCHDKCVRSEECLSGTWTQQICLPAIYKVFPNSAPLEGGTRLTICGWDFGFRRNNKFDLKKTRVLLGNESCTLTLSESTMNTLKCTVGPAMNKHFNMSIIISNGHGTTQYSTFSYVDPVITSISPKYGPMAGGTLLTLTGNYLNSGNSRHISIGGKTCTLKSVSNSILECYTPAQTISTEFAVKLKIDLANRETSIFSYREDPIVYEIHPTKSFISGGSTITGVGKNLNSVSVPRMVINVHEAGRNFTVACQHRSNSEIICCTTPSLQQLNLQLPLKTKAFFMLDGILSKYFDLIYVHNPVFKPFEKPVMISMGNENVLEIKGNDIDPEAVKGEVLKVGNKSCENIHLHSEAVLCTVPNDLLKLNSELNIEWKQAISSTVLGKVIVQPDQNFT

For orientation: IC50 means the concentration needed to halve the response being measured. High values mean weaker potency in that assay, low ones greater potency in that assay. Regarding “trCLN3-L4: trCLN3 aptamer with four C12-lipid-modified dU residues at the 5′-end; self-assembles into micellar nanoconstructs (TGGATGGTAGCTCGGTCGGGGTGGGTGGGTTGGCAAGTCT; four 5' C12-lipid-modified dU residues, chemistry not fully specified)”, the I475/I373 in data set [1] (trCLN3-L4 0.0005 mg/mL (0.035 μM)) is on record as 0.20; in data set [1] (trCLN3-L4 0.001 mg/mL (0.07 μM)), 0.23; in data set [1] (trCLN3-L4 0.0025 mg/mL (0.175 μM)), 0.72; in data set [1] (trCLN3-L4 0.005 mg/mL (0.35 μM)), 1.98; in data set [1] (trCLN3-L4 0.01 mg/mL (0.7 μM)), 1.57; in data set [1] (trCLN3-L4 0.025 mg/mL (1.75 μM)) it was 2.49. Further, the I475/I373 in data set [1] (trCLN3-L4 0.05 mg/mL (3.5 μM)) was 4.69; in data set [1] (trCLN3-L4 0.1 mg/mL (7.0 μM)), 5.13; in data set [1] (trCLN3-L4 0.25 mg/mL (17.4 μM)), 6.90; in data set [1] (trCLN3-L4 0.5 mg/mL (35 μM)), 7.83. This substance yielded an IC50 in the data set with cMet of 43 nM.

The record behind these values is US20240425867A1, “NUCLEIC ACID-BASED ASSEMBLY AND USES THEREOF” (Rheinische Friedrich-Wilhelms-Universität Bonn, priority 2016, published 2024).
